In US8828982B2, “Pyrimidine derivatives for the prevention of HIV infection” (Janssen Pharmaceutica N.V., priority 2003, dated 2014):

How the values were obtained:
Type in all cases: cell-based
[1] = test system: MO-DC/CD4(+) T cell co-cultures (MO-DC stimulators, allogenic CD4(+) T cells responders); experiment: Immune suppressive activity in mixed leucocyte culture (MLC), standard assay; conditions: concentration inhibiting 50% of [methyl-3H]-Thymidine incorporation, 5 days of culture, compound present throughout, read-out: ISC50 (nM) (Test B, standard assay))
Procedure: (§1) The compounds of formula (I) were tested for their immune-suppressive activity (defined as ISC50 value) in a classical MLC in which monocyte-derived dendritic cells (MO-DC) were used as stimulators and allogenic CD4(+) T cells as responders. A dilution series of test compound was added to the MO-DC/CD4(+) T cell co-cultures. After 5 days of culture, 20 μl of [methyl-3H]-Thymidine was added to each well and cultures were harvested after 7 hours. Analysis was done on a Topcount scintillation counter. The immune suppressive concentration (ISC50) is defined as the test compound concentration inhibiting 50% of normal immune proliferation (test compound concentration inhibiting 50% of [methyl-3H]-Thymidine incorporation). (standard MLC assay)

[2] = test system: monotropic HIV strain Ba-L; experiment: In vitro model c) (standard infection experiment), MO-DC/CD4(+) T cell co-cultures, ELISA for HIV antigens after 14 days; conditions: concentration suppressing 50% of viral replication at end of primary culture (14 days), test compound present throughout, MOI 10^-3
Procedure: Monocyte-derived dendritic cells (MO-DC) were infected for 2 hours with the monotropic HIV strain Ba-L at a multiplicity of infection (MOI) of 10^−3. After infection, cells were washed 6 times and resuspended in 10% BCS at 400.000 cells/ml. Autologous CD4(+) T cells were purified out of the lymphocyte fraction of the same elutration as the MO-DC and used at a concentration of 2×10^6 cells/ml ((ratio MO-DC/CD4(+) T: 1/5).
A serial dilution of a compound of formula (I) (test compound) was added to the MO-DC/CD4(+) T cell co-cultures. Each experiment was done in 96-well plates, in which each cup contained 50 μl of MO-DC, 50 μl of CD4(+) T cells and 100 μl of test compound. Half of the culture medium, with test compound, was refreshed twice weekly, during 14 days. Supernatants were analysed by ELISA after 14 days of culture for the presence of HIV antigens. To determine antiviral activity, the test compound concentration able to suppress 50% of the viral replication at the end of the primary cultures (EC50) was measured.

[3] = test system: MO-DC/CD4(+) T cell co-cultures (MO-DC stimulators, allogenic CD4(+) T cells responders); experiment: Immune suppressive activity in mixed leucocyte culture (MLC), 24 hour assay; conditions: test compound present only during first 24 hours of the 5-day culture; read-out: ISC50 (nM) (Test B, 24 hour assay))
Procedure: The compounds of formula (I) were tested for their immune-suppressive activity (defined as ISC50 value) in a classical MLC in which monocyte-derived dendritic cells (MO-DC) were used as stimulators and allogenic CD4(+) T cells as responders.
as §1, with “A” for “The compounds of formula (I) were tested for their immune-suppressive activity (defined as ISC50 value) in a classical MLC in which monocyte-derived dendritic cells (MO-DC) were used as stimulators and allogenic CD4(+) T cells as responders. A”
For the 24 hour assay, the test compound was only present during the first 24 hours of the 5-day culture period. After 24 hours, the cultures were washed (three times) and culture medium without compound was added. The experimental set-up was from then on similar to the standard MLC assay described above.

HIV = HIV replication inhibition test of "C. Pharmacological example" of WO 2003/016306; conditions: test described in WO 2003/016306
From the text: Due to their antiretroviral properties, particularly their anti-HIV properties, especially their anti-HIV-1-activity, the compounds of formula (I), their N-oxides, pharmaceutically acceptable addition salts, quaternary amines and stereochemically isomeric forms thereof, are useful in the treatment of individuals infected by HIV. The HIV replication inhibiting effect of the compounds of formula (I) is described in WO 2003/016306. Compound 255 has a pIC50 value of 9.00 when tested in the test described under the heading “C. Pharmacological example” of WO 2003/016306.

HIV strain Ba-L = experiment: In vitro model b) (24 hour infection experiment), MO-DC co-cultured with autologous T4 cells
Procedure: Monocyte-derived dendritic cells (MO-DC) were co-cultured with autologous T4 cells and infected with HIV strain Ba-L at a multiplicity of infection (MOI) of 10^−3. A serial dilution of test compound was added at the time of infection. After 24 hours, 96-well plates were washed 3 times (test compound and free virus washed away) and medium (without test compound) was added. Half of the medium was refreshed twice a week. Culture supernatants were harvested after 7 and 14 days of culture. After 14 days, cultures were washed 3 times and PHA/IL-2 stimulated PBMC were added for a secondary culture to check for viral rescue. During secondary culture, half of the medium was refreshed twice weekly (IL-2 medium, without test compound). Supernatants were harvested after 1 and 2 weeks of secondary culture. After 2 weeks of secondary culture, cells were also harvested for PCR analysis. Supernatants were analysed in ELISA for the presence of HIV […] during primary and secondary culture.

Structure (SMILES): Cc1cc(/C=C/c2ccncc2)cc(C)c1Nc1ccnc(Nc2ccc(C#N)cc2)n1 [Compound 162]
- IC50 ([1]; Leucocyte, 120 h): 1140 nM
- EC50 ([2]; Human immunodeficiency virus 1, BAL, T-cell, 336 h): 5.5 nM

Structure (SMILES): Cc1cc(/C=C/C#N)cc(C)c1Oc1ccnc(Nc2ccc(C#N)cc2)n1 [Compound 255, 4-[[4-[4-(2-cyanoethenyl)-2,6-dimethylphenoxy]-2-pyrimidinyl]amino]benzonitrile (E)]
- IC50 [3]: 24600 nM
- pIC50 (HIV): 9.00
- IC50 [1]: 20200 nM
- EC50 [2]: 0.05 nM
- cups tested positive in ELISA after 7 days of primary culture (HIV strain Ba-L; concentrations ranging from 10,000 to 10 nM, 6 cups): none out of 6
- EC50 (HIV strain Ba-L; test compound added at time of infection and washed away after 24 hours, MOI 10^-3): 2 nM
